In PMC11555526, “Development of 2-Aminoadenine-Based Proteolysis-Targeting Chimeras (PROTACs) as Novel Potent Degraders of Monopolar Spindle 1 and Aurora Kinases” (ACS Pharmacology & Translational Science, 2024):

Key:
[1] = target: T1, AURKB (MV4-11^AURKB-HiBiT cells) (Homo sapiens, UniProt Q96GD4); assay: HiBiT assay, AURKB degradation; type: cell-based; details: 6 h treatment; for DC50: read-out: DC50 (half-maximal degradation concentration) AURKB
T1 construct: expressed in transfected cells; host or cells: MV4-11, lentiviral transduction (pRRL-PGK vector)
T1 sequence (Q96GD4 1-345 isoform Q96GD4-5): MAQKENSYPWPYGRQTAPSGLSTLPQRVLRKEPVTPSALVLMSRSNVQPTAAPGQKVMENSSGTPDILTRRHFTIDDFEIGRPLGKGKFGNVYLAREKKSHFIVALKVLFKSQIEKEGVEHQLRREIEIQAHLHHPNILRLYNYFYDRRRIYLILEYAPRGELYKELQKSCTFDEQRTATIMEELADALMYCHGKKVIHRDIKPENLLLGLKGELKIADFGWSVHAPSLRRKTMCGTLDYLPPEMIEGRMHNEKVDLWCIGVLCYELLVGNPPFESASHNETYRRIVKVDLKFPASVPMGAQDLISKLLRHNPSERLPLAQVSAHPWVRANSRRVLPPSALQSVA
How it was run: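 MV4-11 lines stably expressing HiBiT-tagged AURKA, AURKB or TTK (lentiviral) were treated with serial compound dilutions for the indicated times. Remaining tagged protein was read by lytic HiBiT luminescence, and DC50 was fitted with a four-parameter dose–response equation using concentrations showing sigmoidal behaviour.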

MV4-11 cells (naive) = assay: alamarBlue cell viability assay; type: cell-based, human; details: 72 h treatment, MV4-11 cells (naive); read-out: EC50 (concentration that decreases cell viability by 50%)
How it was run: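 Cells exposed to compound concentration series or vehicle for 72 h (unless otherwise stated); alamarBlue added a few hours before end point. Read-out by fluorescence (ex 550/em 600 nm) or absorbance (570 nm, 600 nm reference).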

TTK = target: T2, TTK (Homo sapiens, UniProt P33981); assay: Immunoblot of TTK in CALU1 cells; type: cell-based; parameters: endogenous in cells; details: 6 h
T2 sequence (P33981 1-857): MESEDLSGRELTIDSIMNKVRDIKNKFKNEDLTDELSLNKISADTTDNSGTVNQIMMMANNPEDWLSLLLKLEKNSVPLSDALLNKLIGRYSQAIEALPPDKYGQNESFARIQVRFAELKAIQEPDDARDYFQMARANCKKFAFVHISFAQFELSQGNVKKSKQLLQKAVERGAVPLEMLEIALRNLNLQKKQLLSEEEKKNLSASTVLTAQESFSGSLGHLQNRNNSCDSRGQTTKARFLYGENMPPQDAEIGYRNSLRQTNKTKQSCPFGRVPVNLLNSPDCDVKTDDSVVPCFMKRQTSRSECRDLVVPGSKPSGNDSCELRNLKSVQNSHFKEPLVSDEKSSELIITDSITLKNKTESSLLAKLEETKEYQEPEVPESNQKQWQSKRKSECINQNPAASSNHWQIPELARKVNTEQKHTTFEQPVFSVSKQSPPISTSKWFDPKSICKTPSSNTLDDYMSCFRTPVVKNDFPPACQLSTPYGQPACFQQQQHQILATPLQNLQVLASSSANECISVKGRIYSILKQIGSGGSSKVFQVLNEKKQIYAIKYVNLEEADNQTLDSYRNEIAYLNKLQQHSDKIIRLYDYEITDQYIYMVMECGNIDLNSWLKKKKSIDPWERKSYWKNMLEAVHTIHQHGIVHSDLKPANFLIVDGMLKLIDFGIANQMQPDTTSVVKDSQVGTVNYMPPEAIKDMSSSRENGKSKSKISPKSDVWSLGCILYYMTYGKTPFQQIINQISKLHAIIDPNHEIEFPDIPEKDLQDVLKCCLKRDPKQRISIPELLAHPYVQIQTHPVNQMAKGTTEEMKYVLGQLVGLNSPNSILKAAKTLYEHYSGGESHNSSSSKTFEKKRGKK
Description: The cells were treated with compounds or vehicle for indicated time points and lysed in RIPA lysis buffer (50 mM HEPES pH 7.9, 140 mM NaCl, 1 mM EDTA, 1% Triton X-100, 0.1% SDS, 0.1% sodium deoxycholate) containing protease and phosphatase inhibitors (Sigma) for 20 min at 4 °C. Cell lysates were cleared by centrifugation, and protein concentration was determined with bicinchoninic acid assay. Equal amounts of protein per sample were separated by Bis-Tris-PAGE and transferred to PVDF membranes (Millipore). The membranes were blocked with 5% (w/v) nonfat dry milk in TBS-T [20 mM Tris–HCl, pH 7.5, 150 mM NaCl, 0.1% (v/v) Tween-20] for 1 h at room temperature and incubated with primary antibody at 4 °C overnight. Visualization was carried out using horseradish peroxidase (HRP)-labeled secondary antibodies and detected using a chemiluminescent HRP substrate (Millipore) in LAS3000 or LAS4000 mini (Fujifilm). Vinculin, GAPDH, or B-actin were used as a loading control. The loading control was probed along with the target antibody by cutting the membrane. For targets with similar molecular weights, the samples were run in duplicate and probed with their respective loading controls, although only one control was shown in the figure for all targets. The signal was quantified using ImageJ or Image Studio Lite against the corresponding loading controls. Antibodies used in this study were as follows: Aurora A/AIK (Cell Signaling Technology, 3092), Aurora B (Bethyl Laboratories, A300–431A), TTK (Santa Cruz Biotechnology, sc-56968), GAPDH (Cell Signaling Technology, 2118), B-Actin (Sigma, A5441), and Vinculin (Sigma, V9131). […]
Figure S2: Cellular degradation studies of SF1-based compounds. […]
(E), 18 (F), and 14 or 20 (G) for 6 h and compared with vehicle treated cells. (H-J) Immunoblots of TTK and AURKB. CALU1 cells were treated with indicated concentration of 14 or 20 (H), 44 or 47 (I), and 46 (J) for 6 h and compared with DMSO treated cells. All HiBiT data are represented as a mean ±s.d. from n=2 replicates. […]

| Dmax (maximal degradation) AURKB [1] [%] | EC50 (MV4-11 cells (naive)) [nM] | relative TTK level (immunoblot quantification, DMSO = 1.00) (TTK; 0.01 µM) | relative TTK level (immunoblot quantification, DMSO = 1.00) (TTK; 0.1 µM) | DC50 [1] [nM] | relative TTK level (immunoblot quantification, DMSO = 1.00) (TTK; 10 µM) | SMILES | DC50 (half-maximal degradation concentration) AURKB [1] |
| --- | --- | --- | --- | --- | --- | --- | --- |
| 20.30 | 1160 | 0.79 | 0.79 | – | – | Cc1ncsc1-c1ccc(CNC(=O)[C@@H]2C[C@@H](O)CN2C(=O)[C@@H](NC(=O)CCCC(=O)N2CCN(c3ccc(Nc4nc(Nc5ccccc5S(=O)(=O)C(C)C)c5nc[nH]c5n4)cc3)CC2)C(C)(C)C)cc1 [Compound 44] | – (compounds with degradation less than 25% were not calculated and reported as “–”) |
| 38.80 | 214 | – | – | 168 | 1.00 | CC(C)S(=O)(=O)c1ccccc1Nc1nc(Nc2ccc(N3CCN(C(=O)CCCC(=O)Nc4cccc5c4C(=O)N(C4CCC(=O)NC4=O)C5=O)CC3)cc2)nc2[nH]cnc12 (stereo not shown) [Compound 14] | – |
| 29.40 | 577 | – | 0.87 | 248 | – | CC(C)S(=O)(=O)c1ccccc1Nc1nc(Nc2ccc(N3CCN(C(=O)CNC(=O)CCCC(=O)Nc4cccc5c4C(=O)N(C4CCC(=O)NC4=O)C5=O)CC3)cc2)nc2[nH]cnc12 (stereo not shown) [Compound 20] | – |
| 32.17 | 2560 | – | – | 3690 | – | Cc1ncsc1-c1ccc(CNC(=O)[C@@H]2C[C@@H](O)CN2C(=O)[C@@H](NC(=O)COCCOCC(=O)N2CCN(c3ccc(Nc4nc(Nc5ccccc5S(=O)(=O)C(C)C)c5nc[nH]c5n4)cc3)CC2)C(C)(C)C)cc1 [Compound 49] | – |
